Experiments:
[1] = Dynamic light scattering (DLS) droplet size; type: physicochemical; details: 1 mM peptide, 1× PBS, pH 7.4; mean of 3 measurements with 14 scans each; identical for each pair of enantiomers
Procedure: Optical microscopy and dynamic light scattering (DLS) […]
Coacervate size was measured using 1 mM
peptide solutions (1×PBS, pH 7.4) on a ZEN 3600 Zetasizer (Malvern Instruments, UK) using
DLS-Zen 0040 specialized cuvettes. The results were reported as the means of three
measurements, with 14 scans for each measurement. […]

HEK293T cells = assay: eGFP plasmid DNA transfection; type: cell-based; details: coacervates loaded with eGFP DNA plasmid 2.5 μg/mL; qualitative microscopy after 96 h
Procedure: findings were not OVA-specific.
Reserve University) 14,15.
Cytotoxicity and transfection assays
Untreated cells or ethanol treated cells served as controls. Cytotoxicity of all inhibitors was evaluated similarly. For transfection studies, […]
Biosystems, Catalog number: 4060; 2.5 μg/mL). Cells treated with the naked plasmid or […]
complexed with lipofectamine 2000 (3.2 µL) served as controls. GFP expression was assessed qualitatively after 96 h using a Lionheart FX automated microscope (BioTek Instruments, Inc.).
We employed TrueCut Cas9 protein for the knockout of CD55 gene using CRISPR technology, aided with chiral (GHGXY)4 peptide coacervates. The transfection of the Cas9 RNPs (protein + gRNA) was done according to manufacturer’s protocol (Invitrogen). Briefly, A549 cells were cultured in complete DMEM media (supplemented with 10% FBS and 5% Pen Strep) in T-75 flask till full confluency. Cells were then plated at a concentration of 2×10^4 cells/mL in 24 well […]
plates in DMEM media for 24 h. […]
confluent. For positive control, we mixed the TrueCutTM Cas9 protein/sgRNA in Opti-MEM media (17.8 μL) at a concentration of 12.50 μg (75 pmol; Stock 0.5 mg/mL) and 2.4 μg (75 pmol; Stock 1 nmol) for protein and sgRNA respectively, containing 50 μL LipofectamineTM Cas 9 PlusTM reagent (Total Volume: 100 μL) in a RNAse -free microcentrifuge tube. […]

[2] = tested on: CD4+T cells from OT-II mice on BMDCs; assay: OT-II CD4+ T cell proliferation; type: cell-based, mouse; details: BMDCs treated with OVA-loaded coacervates 24 h, CTV-labeled OT-II T cells ~66 h, flow cytometry
Procedure: (§1) page 14: parameters across two channels: eGFP and DAPI. […] Cells were incubated at 37°C (protected from light) for 20 min, after which 5× staining volume of EasySep Buffer was added for another 5 min of incubation. The cells were counted again, centrifuged at 300 g for 5 min, resuspended in RPMI-1640 (Gibco 31800- 022) with 10% FBS (R and D Systems […]), 10 mM HEPES (Sigma H0887), 1× MEM NEAA (Gibco 11140-050), 1 mM sodium pyruvate (Gibco 11360-070), 1× pen-strep glutamine (Gibco 10378-016), and 55 μM β-mercaptoethanol (Gibco 21985-023) added fresh, and then plated onto treated BMDCs. The plates were incubated for ~66 h, after which supernatants were collected for Mouse Adaptive Immune CodePlex Secretome analyses (Bruker Cellular Analysis, Inc), and cells were collected for flow cytometry studies. Flow cytometry Total cells from the spleen and lymph nodes of OT-I/OT-II mice were washed with FACS […] staining. […] Data were analyzed with FlowJo version 10. Proliferation was quantified as the percentage of daughter cells out of single, live, CD4+ or CD8+T cells, gated as having a lower CTV fluorescence intensity than the peak of highest fluorescence (undivided). […] Data are expressed as mean ± S.E.M. and statistical analysis was performed using a one-way or two-way ANOVA with Tukey/Sidak's/Dunnett's multiple comparison test. *p ≤ 0.05, **p ≤ 0.01, ***p ≤ 0.001, ****p ≤ 0.0001. […]

[3] = tested on: CD8+T cells from OT-I mice on BMDCs; assay: OT-I CD8+ T cell proliferation; type: cell-based, mouse; details: BMDCs treated with OVA-loaded coacervates 24 h, CTV-labeled OT-I T cells ~66 h, flow cytometry
Procedure: as §1

| Substance | droplet size (DLS) [1] [μm] | eGFP expression after plasmid delivery (HEK293T cells) | CD4+T cell proliferation [2] | CD8+T cell proliferation [3] |
| --- | --- | --- | --- | --- |
| (GHGLY)4 [GL 20] | ~1.8 | robust eGFP expression | slightly higher |  |
| (GHGVY)4 [GV 20] | ~1.0 | Poor eGFP expression |  | higher percentage of proliferated cells |
